The text below walks through data of publication PMC10824102, “Identification of small molecule inhibitors of G3BP-driven stress granule formation” (The Journal of Cell Biology, 2024).

Test [1] deals with eIF3η, PABPC1, and FXR1 puncta in U2OS cells stably expressing G3BP1-GFP. The test can be described thus: Immunofluorescence of additional stress granule markers after post-addition. Format: cell-based. Conditions: 250 μM NaAsO2 for 30 min, then 50 μM compound for 5 min. Here is the method:
U2OS cells or U2OS cells stably expressing G3BP1-GFP were seeded in four-well Lab-Tek II Chambered Coverglass (1055360; Thermo Fisher Scientific). For preincubation experiments, cells were treated with 50 μM G3I compound for 20 min or 24 h, followed by 250 μM NaAsO2 and 50 μM G3I compound for 30 min. For posttreatment, cells were treated with 250 μM NaAsO2 for 30 min, followed by treatment with 250 μM NaAsO2 and 50 μM G3I compound for 5 min. Cells were then washed twice with PBS and fixed with 4% PFA in PBS for 10 min. Cells were then washed three times with PBS (5 min between each wash), permeabilized with 0.5% Triton X-100 in PBS for 10 min, and washed twice with PBS. Next, cells were blocked for 1 h with 3% BSA in PBS at room temperature, followed by incubation with primary antibodies diluted in 3% BSA overnight at 4°C. Cells were then washed three times with PBS (5 min between each wash) and incubated with secondary antibodies and Hoechst diluted in 3% BSA at room temperature for 1 h. Cells were then washed three times with PBS (5 min between each wash) and imaged. […]

Test [2] addresses T1, full-length 6x-His-tagged human G3BP1 (Homo sapiens, UniProt Q13283).
T1 construct: 10 nM full-length 6x-His-tagged human G3BP1; made in house; host or cells: E. coli BL21 (DE3)
The test can be described thus: Peptide displacement assay (Pep-FRET). Format: binding. Conditions: for pIC50: displacement of FAM-labeled peptide probe, 60 min, room temperature; for displacement of FAM-labeled FGDF peptide from G3BP1: result in words, Fig. 1 C. Here is the method:
Peptide displacement assays were performed in 20 μl total volume at 25°C at pH 7.4 in buffer containing 20 mM Tris-HCl, pH 7.5, 100 mM NaCl, 0.01% bovine serum albumin, 1 mM DTT, and 0.005% Tween-20. 10 nM full-length 6x-His-tagged human G3BP1 was added to the reaction mix containing the test compound and 0.5 nM anti-His-Tb antibody (PerkinElmer). […] Assay plates were shaken for 30 s, then centrifuged for 30 s, and then incubated at room temperature for 60 min. Data were read on an EnVision Multilabel plate reader at 495/520 nm. HTRF ratios were calculated as described by PerkinElmer and IC50s were calculated using GraphPad Prism 9 software and the [Inhibitor] versus Response—Variable Slope (four parameter) fit equation.

Test [3] concerns stress granule formation in U2OS cells stably expressing G3BP1-GFP. Kind of test: Preincubation, arsenite-induced stress granule formation, live cell imaging in U2OS. The following applies: for reduction of total stress granule area / reduction of stress granule formation compared with inactive enantiomer: 20 min pretreatment; for reduction of total stress granule area / stress granule formation: 500 μM NaAsO2; for reduction of stress granule formation compared with inactive enantiomer: 250 μM NaAsO2; for stress granule formation: any tested dose (5, 20, 50 μM). Format: cell-based. Here is the method:
For preincubation of compounds, U2OS or HeLa cells stably expressing G3BP1-GFP or CRISPR-modified cells expressing TDP-43-GFP/G3BP1-GFP were seeded into eight-well Lab-Tek chambered cover glass (Nunc). […] This solution was vortexed for 5 s, added to the cells at 250 μl per well, and left to incubate on the microscope for 20 min. Conditions were maintained at 37°C and 5% CO2 using a Bold Line Cage Incubator (Okolab) and an objective heater (Bioptechs). During this incubation time, 5 xy fields were stored per condition, with each field having ∼20–30 cells within it. After the 20-min incubation, 250 μl of 500 μM or 1 mM (2×) sodium arsenite (Sigma-Aldrich) diluted in the FluoroBrite media with an appropriate amount of G3I compound or DMSO was added to the sample. Imaging began immediately after, with images at each xy field being taken every 1 min. For heat shock experiments, U2OS G3BP1-GFP-expressing cells were seeded into a 35-mm glass bottom dish (MatTek). Prior to the experiment, 1.5 ml FluoroBrite DMEM media (Gibco) supplemented with 10% FBS and 4 mM L-glutamine was combined with 0.1% DMSO or 50 μM G3I compound. The sample was incubated on the environmentally controlled microscope for 20 min. During this incubation time, 10 xy fields were stored per condition. After the 20-min incubation, acquisition began with each xy position being imaged every 30 s. 2 min into the acquisition, the objective heater was ramped to 43°C and maintained this temperature until ramped back down to 37°C at 32 min into the acquisition. All imaging was acquired on a Yokogawa CSU W1 spinning disk attached to a Nikon Ti2 eclipse with a Photometrics Prime 95B camera using Nikon Elements software (v5.20.00 to v5.21.02). Imaging was performed through a Nikon Plan Apo 60× 1.40 NA oil objective with Immersol 518 F (refractive index 1.518; Zeiss), and Perfect Focus 2.0 (Nikon) was engaged for all captures.
Automated granule detection and measurement were performed using a combination of ilastik and CellProfiler software. Briefly, ND2 multipoint timelapse files were resaved as image sequences in Fiji with the Bio-Formats plugin so that individual frames of the movies could be treated as individual images for analysis. From there, pixel classification in ilastik was used to segment both stress granules and the total cellular area within the field using the G3BP1-GFP channel via machine learning. These segmentations, along with the original G3BP1-GFP image, were input into CellProfiler, where objects were defined using the masks from ilastik.

Test [4] concerns stress granule formation in WT cell line with endogenous G3BP1. Kind of test: Stress granule formation in WT cell line with endogenous G3BP1 (immunofluorescence). Format: cell-based. The following applies: Figure S2H: 50 μM, 250 μM NaAsO2 for 30 min. Here is the method:
U2OS cells or U2OS cells stably expressing G3BP1-GFP were seeded in four-well Lab-Tek II Chambered Coverglass (1055360; Thermo Fisher Scientific). For preincubation experiments, cells were treated with 50 μM G3I compound for 20 min or 24 h, followed by 250 μM NaAsO2 and 50 μM G3I compound for 30 min. For posttreatment, cells were treated with 250 μM NaAsO2 for 30 min, followed by treatment with 250 μM NaAsO2 and 50 μM G3I compound for 5 min. Cells were then washed twice with PBS and fixed with 4% PFA in PBS for 10 min. Cells were then washed three times with PBS (5 min between each wash), permeabilized with 0.5% Triton X-100 in PBS for 10 min, and washed twice with PBS. Next, cells were blocked for 1 h with 3% BSA in PBS at room temperature, followed by incubation with primary antibodies diluted in 3% BSA overnight at 4°C. Cells were then washed three times with PBS (5 min between each wash) and incubated with secondary antibodies and Hoechst diluted in 3% BSA at room temperature for 1 h. Cells were then washed three times with PBS (5 min between each wash) and imaged. Primary antibodies were as follows: G3BP1 (Cat# 611127, RRID:AB_398438; BD Biosciences) at 1:200; TDP-43 (Cat# 12892-1-AP, RRID:AB_2200505; Proteintech) at 1:50; eIF3η (Cat# sc-137214, RRID:AB_2277705; Santa Cruz Biotechnology) at 1:100 dilution; PABP (Cat# ab21060, RRID:AB_777008; Abcam) at 1:1,000 dilution; and FXR1 (Cat# ab51970, RRID:AB_880113; Abcam) at 1:100 dilution. Secondary antibodies were as follows: donkey anti-mouse Alexa Fluor 647 (Cat# A-31571, RRID:AB_162542; Thermo Fisher Scientific), donkey anti-rabbit Alexa Fluor 555 (Cat# A-31572 [also A31572], RRID:AB_162543; Thermo Fisher Scientific), and donkey anti-goat Alexa Fluor 555 (Cat# A-21432 [also A21432], RRID:AB_2535853; Thermo Fisher Scientific). Nuclei were stained with Hoechst 33342 (40046; Biotium) at 1:10,000 dilution. All imaging was acquired on a Yokogawa CSU W1 spinning disk attached to a Nikon Ti2 eclipse with a Photometrics Prime 95B camera using Nikon Elements software (versions 5.20.00 to 5.21.02). Imaging was performed through a Nikon Plan Apo 60× 1.40 NA oil objective with Immersol 518 F (refractive index 1.518; Zeiss), and Perfect Focus 2.0 (Nikon) was engaged for all captures.

The structures appear in SMILES notation. pIC50: −log10 of the molar value.

T1 sequence (Q13283 whole entry): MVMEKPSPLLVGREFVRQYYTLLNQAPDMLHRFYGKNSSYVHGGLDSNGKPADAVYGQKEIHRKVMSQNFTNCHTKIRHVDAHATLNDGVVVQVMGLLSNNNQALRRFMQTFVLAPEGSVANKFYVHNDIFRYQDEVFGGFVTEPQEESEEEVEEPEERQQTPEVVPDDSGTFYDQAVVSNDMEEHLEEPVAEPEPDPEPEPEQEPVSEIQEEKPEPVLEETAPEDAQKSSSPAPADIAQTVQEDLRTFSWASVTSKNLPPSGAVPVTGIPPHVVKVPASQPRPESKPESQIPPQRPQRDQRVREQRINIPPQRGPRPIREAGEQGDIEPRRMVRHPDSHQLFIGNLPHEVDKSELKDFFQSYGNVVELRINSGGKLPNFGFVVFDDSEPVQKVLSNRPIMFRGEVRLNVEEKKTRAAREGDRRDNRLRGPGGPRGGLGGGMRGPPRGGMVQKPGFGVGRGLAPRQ

A word on the pIC50: it is −log10 of the IC50, conventionally taken in molar units. Low readings indicate a large IC50, high ones a small IC50. For `COCCC(NC(=O)C(C)NC(=O)C(NC(=O)C(NC(=O)C(F)CC(C)(C)C)C(C)(C)O)C(C)c1ccccc1)C(=O)N(C)Cc1ccccc1` (stereo not drawn) [G3Ia], the “eIF3η, PABPC1, and FXR1 puncta” value in test [1] is “reduced eIF3η, PABPC1, and FXR1 puncta”. In addition, the pIC50 in test [2] was 5.82. Also, the “displacement of FAM-labeled FGDF peptide from G3BP1” value (“displacement” for short) in test [2] is reported as “potently displaced”. Further, the figures for the “reduction of total stress granule area” value in test [3] (5 μM), in test [3] (20 μM) and in test [3] (50 μM) were approximately 36%, approximately 59% and approximately 80%, respectively. The “reduction of stress granule formation compared with inactive enantiomer” value in test [3] (50 μM) is approximately 86%. The “stress granule formation by endogenous G3BP signal” value in test [4] was “effectively blocked stress granule formation”.
For the molecule `COCCC(NC(=O)C(C)NC(=O)C(NC(=O)C(NC(=O)C(F)CC(C)(C)C)C(C)(C)O)C(C)c1ccccc1)C(=O)N(C)Cc1ccccc1` (stereo not drawn) [G3Ia′], in test [2], the pIC50 was less than 4.30 and the “displacement” value is recorded as “little effect”. In addition, the stress granule formation result in test [3] is “not significantly altered”. Further, the “stress granule formation by endogenous G3BP signal” value in test [4] is given as “not”.
Turning to `CC(NC(=O)C(NC(=O)C(NC(=O)CCC(C)(C)C)C(C)(C)O)C(C)c1ccccc1)C(=O)N1CCCC1c1ccccc1` (stereo not drawn) [G3Ib], the “eIF3η, PABPC1, and FXR1 puncta” value in test [1] was “reduced eIF3η, PABPC1, and FXR1 puncta”. In addition, in test [2], the pIC50 was 6.15 and the “displacement” value is listed as “potently displaced”. Further, the “reduction of total stress granule area” value in test [3] (5 μM) is recorded as approximately 50%. The “reduction of total stress granule area” value in test [3] (20 μM) is reported as approximately 85%. For the same molecule, in test [3] (50 μM), the “reduction of stress granule formation compared with inactive enantiomer” value was approximately 94% and the “reduction of total stress granule area” value is given as approximately 93%. Besides, the “stress granule formation by endogenous G3BP signal” value in test [4] is “effectively blocked stress granule formation”.
In the case of `CC(NC(=O)C(NC(=O)C(NC(=O)CCC(C)(C)C)C(C)(C)O)C(C)c1ccccc1)C(=O)N1CCCC1c1ccccc1` (stereo not drawn) [G3Ib′], in test [2], the pIC50 is less than 4.30 and the “displacement” value is given as “little effect”. Besides, in test [3], the stress granule formation result is listed as “not significantly altered”. For the same molecule, in test [4], the “stress granule formation by endogenous G3BP signal” value is reported as “not”.
